In patent publication US20100016324A1, “PHARMACEUTICAL COMPOSITIONS FOR THE TREATMENT OF CELLULITE” (MENARINI RICERCHE S.P.A., priority 2004, published 2010):

How the values were obtained:
[1] = system: human adipocytes; assay: in vitro lipolysis test: glycerol release stimulated by 10 nM isoprenalin in cultured human adipocytes; assay type: cell-based; conditions: Adipocyte, 15 min preincubation, 4 h, read-out: % INCREASE IN LIPOLYSIS
Experimental: Determination of extracellular glycerol produced by lipolysis of adipocyte triglycerides.
The in vitro lipolysis test was conducted on human adipocytes obtained from primary cultures of their progenitors, preadipocytes (Promocell), by inducing differentiation. The actual adipocyte differentiation was established by assaying glycerol-3-phosphate dehydrogenase (an enzyme expressed in mature adipocytes, but not in preadipocytes) and the lipids accumulated at intracellular level, with Oil Red O (Sigma).
The PDE3 inhibitors were preincubated with the adipocytes at various concentrations for 15 min; 10 nM of isoprenalin, able to induce weak stimulation of lipolysis (25% of the maximum response obtained with isoprenalin 1 μM), was then added. After 4 h the culture medium was removed, and […].
Lipolytic activity was evaluated by determining the glycerol released into the extracellular medium following triglyceride hydrolysis.
Effect of Some PDE Inhibitors on Glycerol Release, Stimulated by 10 nM Isoprenalin, in Cultured Human Adipocytes

[2] = system: cellulite in the upper outer part of the thighs; assay: In vivo test: thigh circumference in healthy female adults with cellulite, cream vs base cream; set-up: species or system human; conditions: cream with 1% Milrinone, topical, twice a day for 2 months, 10 healthy female adults
Experimental: 10 healthy female adults presenting evident cellulite in the upper outer part of the thighs were examined. Each patient served as her own control for evaluation of efficacy and safety. […] Treatment with approx. 2-3 cm of cream, massaged in for 2-3 minutes until absorbed, was repeated twice a day every day for 2 months. […] The circumference of each thigh was measured periodically, two-thirds of the way between the knee and the greater trochanter, until the end of treatment. The reduction in circumference of the pharmacologically treated thigh compared with the untreated thigh was 2.9±0.7 cm, with a range of 1.3-4.7 cm.

[3] = Determination of the compound in the blood at the end of the observation period; assay type: in vivo, human; conditions: after topical cream with 1% Milrinone twice a day for 2 months
Experimental: 10 healthy female adults presenting evident cellulite in the upper outer part of the thighs were examined.
Each patient served as her own control for evaluation of efficacy and safety. The cream containing the active constituent (1% Milrinone) was spread on the outer part of one thigh, while the base cream (without the active constituent) was spread in the same area of the other thigh, in a randomised manner.
Treatment with approx. 2-3 cm of cream, massaged in for 2-3 minutes until absorbed, was repeated twice a day every day for 2 months.

SMILES | activation at 10 µM [1] [%] | further results
Nc1cc(-c2ccncc2)c[nH]c1=O [Amrinone] | 20 ± 6 | 
O=C1CN2Cc3c(ccc(Cl)c3Cl)N=C2N1 [Anagrelide, anagrelide] | 114 ± 11 | 
Cn1c(=O)c2c(ncn2C)n(C)c1=O [Caffeine, caffeine] | 10 ± 5 | 
O=C1CCc2cc(OCCCCc3nnnn3C3CCCCC3)ccc2N1 [Cilostazol, cilostazol] | 31 ± 9 | 
CSc1ccc(C(=O)c2[nH]c(=O)[nH]c2C)cc1 [Enoximone, enoximone] | 65 ± 4 | 
Cc1[nH]c(=O)c(C#N)cc1-c1ccncc1 [Milrinone, milrinone] | 151 ± 16 | reduction in circumference of the pharmacologically treated thigh compared with the untreated thigh ([2]; mean ± spread): 2.9±0.7 cm; reduction in circumference of the pharmacologically treated thigh compared with the untreated thigh, range ([2]; range across patients): 1.3-4.7 cm; presence of the compound in the blood [3]: did not detect the presence of the compound
COc1ccc(-c2nc3ccc(C4=NNC(=O)CC4C)cc3[nH]2)cc1 (stereo not drawn) [Pimobendan, pimobendan] | 159 ± 22 | 
Cn1c(=O)c2[nH]cnc2n(C)c1=O [Theophylline, theophylline] | 5 ± 4 | 
COc1cc2c(cc1OC)-c1c/c(=N\c3c(C)cc(C)cc3C)n(C)c(=O)n1CC2 [Trequinsin, trequinsin] | 276 ± 59 | 
